# US7939626B2, “Chemoselective ligation” (The Regents of the University of California, priority 2000, dated 2011)
# Assays:
# [1] = system: Jurkat cells; assay: Cell surface disulfide bond reduction: free sulfhydryl groups detected with iodoacetylbiotin and FITC-avidin; format: cell-based, human; details: 1 mM phosphine, 1 hour, relative to cells exposed to iodoacetylbiotin alone, FIG. 9
# Protocol: To satisfy the requirement of chemical orthogonality, both participants in the reaction may not engage functional groups endogenous to cells. Triarylphosphines are mild reducing agents, which raises the possibility of disulfide bond reduction as an undesirable side reaction. We addressed this issue by incubating Jurkat cells with triarylphosphine, an intermediate in the synthesis of 47, and quantifying the appearance of free sulfhydryl groups on the cell surface with iodoacetylbiotin and FITC-avidin (FIG. 9). Following incubation, cells were pelleted washed with PBS, and diluted to a volume of 240 μl. Samples were combined with 60 μl of a solution of iodoacetylbiotin (5 mM in PBS), After incubation in the dark at room temperature for 1.5 hrs, the cells were washed with buffer, stained with FITC-avidin, and analyzed by flow cytometry.
# After 1 hour in the presence of 1 mM triarylphosphine, no detectable increase in free sulfhydryl groups was observed relative to cells exposed to iodoacetylbiotin alone (FIG. 9). In a positive control experiment, Jurkat cells were incubated with the trialkylphosphine TCEP (1 mM, 1 hour, room temperature), a commercial disulfide bond reducing agent. […] Therefore, triarylphosphines are essentially unreactive toward disulfide bonds under these conditions, rendering ligation with azides the predominant pathway for reactivity.
# [2] = system: HeLa cells; assay: Cell surface azide expression and growth after the modified Staudinger reaction in HeLa cells
# [3] = system: Jurkat cells; assay: Cell surface azide expression: reaction with biotinylated phosphine, FITC-avidin staining, flow cytometry; format: cell-based, human
# [4] = system: Jurkat cells; assay: Competition with ManLev metabolism: cell surface ketone detection with biotin hydrazide and FITC-avidin, flow cytometry; format: cell-based, human; details: 3 days, increasing concentrations of acetylated ManAz (Ac4MA) with acetylated ManLev (Ac4ML), FIG. 3
# [5] = system: Jurkat cells; assay: Growth of Jurkat cells incubated with ManAz for three days (cell counting); format: cell-based, human; details: ManAz at a range of concentrations, ManNAc as negative control, FIG. 1
# Protocol: Jurkat cell cultures. Cell cultures of Jurkat were maintained in RPMI 1640 media (Gibco Laboratories, Grand Island, N.Y.) supplemented with 5% fetal bovine serum (FBS, Hyclone, Logan, Utah), 50 units/mL of penicillin and 50 μg/mL of streptomycin (Mediatech, Hemdon, Va.), in a humidified 5% CO2 atmosphere at 37° C. Cell densities were determined using a Coulter Counter-Z2 (Coulter, Miami, Fla.),
# Treatment of cells with mannosamine derivatives. Cultures of Jurkat cells were seeded at a density of 1.25×10^5 cells/mL into 12-well tissue culture plates in a total volume of 2 mL of culture media. The appropriate amount of each sugar (1, 3, 20, 36, 37) in a solution of PBS was added and the cells were incubated for 3 d. Control wells containing no added sugar were also seeded with cells and incubated.
# (§1) Toxicity was ascertained by incubating Jurkat cells, a human T-cell lymphoma cell line, with ManAz for three days at a range of concentrations, using the natural substrate ManNAc (1) as a negative control. Each experiment was performed in triplicate. The cells were counted to determine whether addition of 20 was inhibiting cell growth.
# [6] = system: cell surface; assay: Side-by-side comparison with the cell surface ketone reaction; format: cell-based; details: same reagent concentrations
# Description: This may reflect either a faster reaction at the cell surface, or more efficient metabolism of azidosugar 20 as compared to the ketosugar. The azide has a major advantage over the ketone in that its reactivity is unique in a cellular context due its abiotic nature. Ketones, by contrast, abound inside cells in the form of metabolites such as pyruvic acid and oxaloacetate. It should be noted that the modified Staudinger reaction is chemically orthogonal to ketone ligations and should allow tandem modification of cell surfaces with the two chemistries.
# [7] = system: Jurkat cells; assay: Propidium iodide assay, percentage of viable cells by flow cytometry; format: cell-based, human; details: Jurkat cells after 3 days with ManAz, FIG. 2
# Protocol: Flow cytometry. Flow cytometry analysis was performed on a Coulter EPICS® XL-MCL cytometer (Coulter, Miami, Fla.) using a 488 nm argon laser. At least 10^4 viable cells were analyzed from each sample. Dead cells were excluded from the analysis using forward/side scatter gating.
# Propidium iodide assay. After growth in the presence of the appropriate sugars, cells were pelleted (3000×g, 2 min), washed twice with 1 mL avidin staining buffer (0.1% NaN3, 0.1% FBS in PBS, pH 7.4) and diluted to a volume of 300 μL. Immediately prior to flow cytometry analysis, 10 μL of propidium iodide solution (1 mM in PBS) was added to each sample.
# as §1
compound,measurement,setting,value
O=C(O)CCP(CCC(=O)O)CCC(=O)O [TCEP],free sulfhydryl groups on the cell surface,[1],dramatic increase in free cell-surface sulfhydryl groups
"CC(=O)OC[C@H]1OC(OC(C)=O)[C@@H](NC(=O)CN=[N+]=[N-])[C@@H](OC(C)=O)[C@@H]1OC(C)=O (stereo partly drawn) [compound 36, 1,3,4,6-Tetra-O-acetyl-N-azidoacetylmannosamine]",growth rate after the modified Staudinger reaction,[2]; HeLa cells cultured for an additional 3 days after the reaction,no change in growth rate
same,fluorescence after azidosugar incubation and phosphine reaction,"[2]; HeLa cells, compared with the Jurkat result",responded similarly
same,biotin moieties accumulated on the cell surface,"[3]; 40 μM acetylated 3 for 3 days, then 2 mM compound 5 for 3 hours",approximately 4.5 million
same,biotin moieties accumulated on the cell surface,"[3]; 40 AM acetylated 20 for 3 days, then 2 mM compound 47 for 3 hours",approximately 4.5 million
same,biotin moieties accumulated on the cell surface,"[3]; acetylated 20 for 3 days, then 1 mM compound 47 for 1 hour, calibrated with biotinylated beads","approximately 850,000 biotin moieties"
same,"fluorescence (biotin moieties on the cell surface, FITC-avidin)","[3]; acetylated azidosugar 20 μM for 3 days, then compound 47 (1 mM in PBS, pH 7.4) 1 hr at room temperature, versus untreated cells, FIG. 5",dramatic increase in fluorescence
same,fluorescence from ketone labeling (competition with acetylated ManLev),[4],proportionately decreasing fluorescence
"[N-]=[N+]=NCC(=O)N[C@@H]1C(O)O[C@H](CO)[C@@H](O)[C@@H]1O (stereo partly drawn) [compound 20, N-azidoacetylmannosamine]",number of cells observed after 3 days of growth,[5],a decrease in the number of cells observed after 3 days of growth in a dose-dependent fashion
same,fluorescence of azidosugar metabolism plus phosphine reaction versus ketosugar metabolism plus hydrazide reaction,[6],two-fold higher fluorescence
same,percentage of viable cells,[7],No significant change in the percentage of viable cells
tunicamycin [reference compound],fluorescence signal with tunicamycin added during azidosugar incubation,[3]; tunicamycin present during incubation with the azidosugar,reduced
